Results published in patent US12109197B2, “Combinations of β-lactam compounds and probenecid and uses thereof” (Iterum Therapeutics International Limited, priority 2018, dated 2024).
Where “and” joins values, the source holds several entries; their conditions need not be identical. Equal entries are not always repeated. Where two headings read alike, the source gives them in different places.

Tests used:
[1] = for Cmax / TAMIC0.5 / TAMIC1.0 / Tmax / AUCtau / AUCinf / AUClast / t1/2: plasma; for Tmax: median (minimum-maximum); for AUCtau: time 0 to 12 hours
Procedure: Subjects were to be dosed twice a day (every 12 hours) for 6 days and on Day 7 they were to be dosed once. All treatment groups could be run in parallel or sequentially. Subjects were allocated based on the randomization list. Randomization numbers were assigned sequentially as subjects entered into groups on the basis of their order of entry into the study. Subjects who withdrew for reasons unrelated to safety may have been replaced. Blood samples were obtained at prespecified intervals in order to characterize pharmacokinetics.

[2] = format: in vivo, human; settings: for Tlast / Tmax: median; for TAMIC1: minimum concentration 0.5 μg/mL; for TAMIC2: minimum concentration 1.0 μg/mL
Procedure: A Phase 1, randomized, investigator-blind, subject-blind, sponsor-open, placebo-controlled, single and multiple dose study of Compound II-2b was further conducted. There were 6 planned cohorts of subjects. Each cohort was planned to enroll 12 subjects, for a total of 72 planned subjects. Subjects in the multidose cohort were dosed for 10 days; new subjects were recruited for each cohort. Subjects in these cohorts, on Days 1 through 9, were dosed BTD (12 hours apart) at approximately 0800 and 2000 hours. On Day 10, subjects were to be dosed only once at approximately 0800 hours.

[3] = format: in vivo, human; settings: for TAMIC0.5 / TAMIC1.0 / Tmax: median; for Ae24%: percent of administered dose, adjusted for MW; for CLr: renal clearance; for Ae24: urine over 24 hours postdose
From the text: The pharmacokinetics of Compound III-2b wer studies in a randomized, subject-blinded, investigator- and sponsor-open, placebo-controlled, multiple-dose study, run in parallel cohorts. There were 7 cohorts of approximately 10 subjects each (4:1 active:placebo).

[4] = 2000 mg BID, Study Day 1, plasma
[5] = 2000 mg BID, Study Day 10, plasma
[6] = Cohort 2: 1 g BID, fasted, Day 1
[7] = Cohort 2: 1 g BID, fasted, Day 7
[8] = Cohort 3: 1.5 g BID, fed, Day 1
[9] = Cohort 3: 1.5 g BID, fed, Day 7
[10] = Cohort 4: 0.5 g BID, fasted, Day 1
[11] = Cohort 4: 0.5 g BID, fasted, Day 7

AUCtau, GM ([1]; Day 7, With Probenecid): 5325.20 ng·h/mL
Cmax, GM ([1]; Day 7, With Probenecid): 1532.10 ng/mL
AUCtau, GM ([1]; Day 7, Without Probenecid): 3084.36 ng·h/mL
Cmax, GM ([1]; Day 7, Without Probenecid): 1233.18 ng/mL
AUC of sulopenem on Day 7 compared with Day 1 ([1]; administered alone through the oral route): lower than that on Day 1
Cmax ([1]; fasted, Day 1): 1699.1 (31.64) ng/mL
TAMIC0.5 ([1]; fasted, Day 1): 2.6348 (14.85) h
TAMIC1.0 ([1]; fasted, Day 1): 1.0758 (94.61) h
Tmax ([1]; fasted, Day 1): 1.0000 (0.4830-2.017) h
AUCinf ([1]; fasted, Day 7): 2627.8 (18.89) hr*ng/mL
AUClast ([1]; fasted, Day 7): 2607.4 (19.10) hr*ng/mL
Cmax ([1]; fasted, Day 7): 1289.4 (39.17) ng/mL
TAMIC0.5 ([1]; fasted, Day 7): 2.1088 (16.74) h
TAMIC1.0 ([1]; fasted, Day 7): 0.732 (62.70) h
t1/2 ([1]; fasted, Day 7): 0.9376 (15.34) h
Tmax ([1]; fasted, Day 7): 0.9915 (0.5000-1.033) h
Cmax ([1]; fed, Day 1): 1730.9 (46.66) ng/mL
TAMIC0.5 ([1]; fed, Day 1): 3.0103 (31.13) h
TAMIC1.0 ([1]; fed, Day 1): 2.0882 (25.12) h
Tmax ([1]; fed, Day 1): 1.000 (1.5000-2.983) h
AUCtau ([1]; fed, Day 1): 4413.7 (27.00) hr*ng/mL
AUCinf ([1]; fed, Day 7): 3712.7 (24.27) hr*ng/mL
AUClast ([1]; fed, Day 7): 3537 (25.01) hr*ng/mL
Cmax ([1]; fed, Day 7): 1179.4 (25.94) ng/mL
TAMIC0.5 ([1]; fed, Day 7): 2.8507 (31.48) h
TAMIC1.0 ([1]; fed, Day 7): 1.3191 (62.54) h
t1/2 ([1]; fed, Day 7): 0.9114 (26.68) h
Tmax ([1]; fed, Day 7): 1.483 (2.0000-4.000) h
AUCtau ([1]; fed, Day 7): 3706.4 (24.21) hr*ng/mL
AUCinf [2, 4]: 18100 ng·h/mL
AUCtau [2, 4]: 17500 ng·h/mL
Cmax [2, 4]: 6090 ng/mL
t1/2 [2, 4]: 1.66 h
Tlast [2, 4]: 8.00 h
Tmax [2, 4]: 1.00 h
TAMIC1 [2, 4]: 6.93
TAMIC2 [2, 4]: 5.57
Ae24 ([2]; 2000 mg BID, Study Day 6, urine, sulopenem excreted unchanged over 24 hours): 253000 (26) ug
Rac ([2]; 2000 mg BID, Study Day 10, accumulation ratio): 0.685
AUCtau [2, 5]: 12200 ng·h/mL
Cmax [2, 5]: 5480 ng/mL
Ctrough [2, 5]: 0.00 ng/mL
t1/2 [2, 5]: 1.27 h
Tlast [2, 5]: 8.00 h
Tmax [2, 5]: 1.00 h
TAMIC1 [2, 5]: 4.70
TAMIC2 [2, 5]: 3.61
AUCtau ([2]; 2000 mg, Day 1): 17500 ng·h/mL
AUCtau ([2]; 2000 mg, Day 10): 12200 ng·h/mL
AUCinf ([3]; 500 mg FED, Day 1): 3400 ng·h/mL
AUCinf ([3]; 500 mg FED, Day 7): 2990 ng·h/mL
AUCinf ([3]; 1000 mg FED, Day 1): 9430 ng·h/mL
AUCinf ([3]; 1000 mg FED, Day 7): 7800 ng·h/mL
AUCinf ([3]; 1000 mg TID FED, Day 1): 8290 ng·h/mL
AUCinf ([3]; 1000 mg TID FED, Day 7): 6750 ng·h/mL
AUCinf ([3]; 1000 mg, Day 1): 6680 ng·h/mL
AUCinf ([3]; 1000 mg, Day 7): 6020 ng·h/mL
AUCinf ([3]; 1500 mg, Day 1): 12900 ng·h/mL
AUCinf ([3]; 1500 mg, Day 7): 9950 ng·h/mL
AUCinf ([3]; Cohort 1: 1 g BID, fed, Day 1): 9430 (13) ng · h/mL
AUClast ([3]; Cohort 1: 1 g BID, fed, Day 1): 9330 (13) ng · h/mL
Cmax ([3]; Cohort 1: 1 g BID, fed, Day 1): 4420 (24) ng/mL
t½ ([3]; Cohort 1: 1 g BID, fed, Day 1): 0.823 (13) h
TAMIC0.5 ([3]; Cohort 1: 1 g BID, fed, Day 1): 4.35 h
TAMIC1.0 ([3]; Cohort 1: 1 g BID, fed, Day 1): 3.21 h
Tmax ([3]; Cohort 1: 1 g BID, fed, Day 1): 1.50 h
AUCinf ([3]; Cohort 1: 1 g BID, fed, Day 7): 7800 (17) ng · h/mL
AUClast ([3]; Cohort 1: 1 g BID, fed, Day 7): 7670 (17) ng · h/mL
Cmax ([3]; Cohort 1: 1 g BID, fed, Day 7): 3770 (23) ng/mL
t½ ([3]; Cohort 1: 1 g BID, fed, Day 7): 0.761 (11) h
Rac ([3]; Cohort 1: 1 g BID, fed, Day 7, accumulation ratio): 0.832 (13)
TAMIC0.5 ([3]; Cohort 1: 1 g BID, fed, Day 7): 3.32 h
TAMIC1.0 ([3]; Cohort 1: 1 g BID, fed, Day 7): 2.64 h
Tmax ([3]; Cohort 1: 1 g BID, fed, Day 7): 2.00 h
Ae24% ([3]; Cohort 1: 1 g BID, fed, Day 7): 19.0 (27) %
CLr ([3]; Cohort 1: 1 g BID, fed, Day 7): 17.4 (19) L/h
Ae24 ([3]; Cohort 1: 1 g BID, fed, Day 7): 138.7 (27) mg
AUCinf [3, 6]: 6680 (20) ng · h/mL
AUClast [3, 6]: 6770 (22) ng · h/mL
Cmax [3, 6]: 2760 (13) ng/mL
t½ [3, 6]: 1.37 (33) h
TAMIC0.5 [3, 6]: 3.69 h
TAMIC1.0 [3, 6]: 2.91 h
Tmax [3, 6]: 1.50 h
AUCinf [3, 7]: 6020 (16) ng · h/mL
AUClast [3, 7]: 6070 (19) ng · h/mL
Cmax [3, 7]: 2410 (33) ng/mL
t½ [3, 7]: 1.08 (24) h
Rac ([3]; Cohort 2: 1 g BID, fasted, Day 7, accumulation ratio): 0.910 (11)
TAMIC0.5 [3, 7]: 4.18 h
TAMIC1.0 [3, 7]: 2.72 h
Tmax [3, 7]: 1.75 h
Ae24% [3, 7]: 10.2 (23) %
CLr [3, 7]: 12.2 (30) L/h
Ae24 [3, 7]: 74.4 (23) mg
AUCinf [3, 8]: 12900 (23) ng · h/mL
AUClast [3, 8]: 12100 (21) ng · h/mL
Cmax [3, 8]: 3700 (42) ng/mL
t½ [3, 8]: 1.20 (14) h
TAMIC0.5 [3, 8]: 6.34 h
TAMIC1.0 [3, 8]: 4.81 h
Tmax [3, 8]: 2.50 h
AUCinf [3, 9]: 9950 (15) ng · h/mL
AUClast [3, 9]: 9710 (15) ng · h/mL
Cmax [3, 9]: 2670 (28) ng/mL
t½ [3, 9]: 0.901 (14) h
Rac ([3]; Cohort 3: 1.5 g BID, fed, Day 7, accumulation ratio): 0.809 (14)
TAMIC0.5 [3, 9]: 5.96 h
TAMIC1.0 [3, 9]: 4.44 h
Tmax [3, 9]: 2.51 h
AUCinf [3, 10]: 3400 (20) ng · h/mL
AUClast [3, 10]: 3260 (22) ng · h/mL
Cmax [3, 10]: 1470 (34) ng/mL
t½ [3, 10]: 0.862 (19) h
TAMIC0.5 [3, 10]: 2.66 h
TAMIC1.0 [3, 10]: 1.38 h
Tmax [3, 10]: 1.03 h
AUCinf [3, 11]: 2990 (23) ng · h/mL
AUClast [3, 11]: 2730 (27) ng · h/mL
Cmax [3, 11]: 1310 (22) ng/mL
t½ [3, 11]: 0.797 (16) h
Rac ([3]; Cohort 4: 0.5 g BID, fasted, Day 7, accumulation ratio): 0.873 (29)
TAMIC0.5 [3, 11]: 2.38 h
TAMIC1.0 [3, 11]: 0.803 h
Tmax [3, 11]: 1.50 h
AUCinf ([3]; Cohort 7: 1 g TID, fed, Day 1): 8290 (6) ng · h/mL
AUClast ([3]; Cohort 7: 1 g TID, fed, Day 1): 7670 (13) ng · h/mL
Cmax ([3]; Cohort 7: 1 g TID, fed, Day 1): 3320 (36) ng/mL
t½ ([3]; Cohort 7: 1 g TID, fed, Day 1): 1.26 (40) h
TAMIC0.5 ([3]; Cohort 7: 1 g TID, fed, Day 1): 4.90 h
TAMIC1.0 ([3]; Cohort 7: 1 g TID, fed, Day 1): 3.32 h
Tmax ([3]; Cohort 7: 1 g TID, fed, Day 1): 1.75 h
AUCinf ([3]; Cohort 7: 1 g TID, fed, Day 7): 6750 (11) ng · h/mL
AUClast ([3]; Cohort 7: 1 g TID, fed, Day 7): 6230 (16) ng · h/mL
Cmax ([3]; Cohort 7: 1 g TID, fed, Day 7): 2090 (28) ng/mL
t½ ([3]; Cohort 7: 1 g TID, fed, Day 7): 0.790 (2) h
Rac ([3]; Cohort 7: 1 g TID, fed, Day 7, accumulation ratio): 0.827 (21)
TAMIC0.5 ([3]; Cohort 7: 1 g TID, fed, Day 7): 4.62 h
TAMIC1.0 ([3]; Cohort 7: 1 g TID, fed, Day 7): 3.22 h
Tmax ([3]; Cohort 7: 1 g TID, fed, Day 7): 4.00 h
Rac ([3]; in vivo): 1.10 (24)
SMILES: CCC(CC)C(=O)OCOC(=O)C1=C(S[C@H]2CC[S@@+]([O-])C2)S[C@@H]2[C@@H]([C@@H](C)O)C(=O)N12 [Compound III-2b, Sulopenem Etzadroxil]
AUC of sulopenem on Day 7 compared with Day 1 ([1]; co-administered with probenecid): increased on Day 7 beyond that seen on Day 1
AUCtau ([1]; fasted, Day 1): 3623.8 (19.19) hr*ng/mL and 3623.8 hr*ng/mL
AUCtau ([1]; fasted, Day 7): 2626.3 (18.89) hr*ng/mL and 2626.3 hr*ng/mL
Ae % ([2]; 2000 mg BID, Study Day 6, urine, percent of sulopenem dose excreted): 17.3 (26) %
